Source: patent US5648359A, “Tumor necrosis factor production inhibitors” (Sumitomo Pharmaceuticals Company, Limited, priority 1993, dated 1997)
Structures can show the parent of a compound that is named as a salt.

These compounds were tested on TNF production or secretion in mouse peritoneal macrophages (assay: Inhibitory effect on TNF production or secretion in mouse peritoneal macrophages (30 μM)). Details: Mus musculus; 30 μM compound; LPS 10 μg/ml, 18 hours; TNF by L929 bioassay.
Format: cell-based, mouse (BALB/c)
Protocol: Inhibitory effect on TNF production or secretion in mouse peritoneal macrophages (In case drug concentration is 30 μM)
BALB/c mice (5 weeks old, female, Charles River Japan) were intraperitoneally injected with 1 ml of 3% thioglycollate broth. After 4 days, the mice were sacrificed. Peritoneal exudated cells (PECs) were collected from the peritoneal cavity by washing with minimum essential medium (hereinafter abbreviated as MEM, manufactured by Handai Biseibutubyo Kenkyukai, Osaka, Japan) containing 5 U/ml heparin and 1% fetal bovine serum (FBS, manufactured by GIBCO Laboratories Inc.). PECs were washed three times with MEM, suspended with MEM containing 10% FBS. After the viable cells were counted by exclusion of trypan blue dye, the suspension was adjusted at the final concentration of 2×10^6 cells/ml with MEM containing 10% FBS and seeded into a 96-well microplate (Costar, Cambridge, Mass., USA) at 2×10^5 cells/100 μl/well. The PECs were incubated for an hour at 37° C. in a humidified 5% CO2 incubator, and were washed twice with MEM warmed at 37° C. to remove non-adherent cells. Residual adherent cells were used as peritoneal macrophages. After the washing above, 50 μl each/well of MEM containing 10% FBS was added to each well and provided for use in the following experiment.
The powdery compound of the present invention was dissolved in dimethylsulfoxide in a concentration of 30 mM. The solution was then diluted with MEM containing 10% FBS in the final concentration of 30 μM. In the peritoneal macrophages obtained above, 50 μl each of the dilution was added to each well to make the total volume 100 μl. Thereafter 100 μl each of lipopolysaccharide (hereinafter abbreviated as LPS, E. coli 0111B4, manufactured by DIFCO, USA) was added to each well in the final concentration of 10 μg/ml. After the cells were incubated at 37° C. for 18 hours in a humidified 5% CO2 incubator, 25 μl of the supernatant in each well was collected.
The TNF activity in the supernatant collected was determined by bioassay using TNF-sensitive mouse fibroblast cell line L929 cells. That is, 100 μl each of MEM containing 10% FBS was added to each well of a 96-well microplate; using the resulting mixture, 25 μl of the collected supernatant was diluted to 5-fold dilution to final concentrations (concentrations after the following addition of L929 cell suspension) of 10%, 2%, 0.4% and 0.08%.
L929 cells were then suspended (4×10^5 cells/ml) in MEM containing 10% FBS and 1 μg/ml actinomycin D (Sigma Co.) and 100 μl each of the suspension was added to each well of the above microplate at 4×10^4 cells/well and cultured at 37° C. in a humidified 50% CO2. The viable cells were counted by partial modification of the MTT method reported in Monosann et al., T., J. Immunol. Method, 65, 55-63, 1983. The modified MTT method comprises the following steps. One mg/ml of 3-(4,5-dimethylthiazol-2-yl)-2,5-diphenyltetrazolium bromide (hereinafter abbreviated as MTT, manufactured by Sigma Co.) was dissolved in MEM, and 50 μl each of the solution was added to each well of the microplate above. After incubating the microplate for further 6 hours, the supernatant was discarded and 100 μl of 0.004N HCl-isopropyl alcohol and then 10 μl of 0.01% sodium laurylsulfate aqueous solution was added to each well. After shaking the 96-well microplate for a few minutes, the absorbance in each well was measured with a microplate reader (Corona Co.) at an absorption wavelength of 550 nm. The absorbance correlated to the count of the viable L929 cells and represented the TNF activity in the supernatant. The TNF activity was determined in terms of unit (U)/ml from the calibration curve of absorbance for the TNF activity obtained using mouse recombinant TNF α (TNF-M, manufactured by Genzyme Co.) as a standard. The activity of inhibiting TNF production of each compound, was determined by the following equation.
Inhibition of TNF production or secretion (%)=(1-TNF activity in the […]
`CC(=O)N1C2Cc3cc4c(cc3C1Cc1cc3c(cc12)OCO3)OCO4` [Example 1, 15-acetyl-5,6,12,13-tetrahydrocycloocta[1,2-f:5,6-f']bis[1,3]benzodioxol-5,12-imine] showed an inhibition at 30 µM of 95%.
Compound `CCN1C2Cc3cc4c(cc3C1Cc1cc3c(cc12)OCO3)OCO4` [Example 2, 15-ethyl-5,6,12,13-tetrahydrocycloocta[1,2-f:5,6-f']bis[1,3]benzodioxol-5,12-imine hydrochloride] has an inhibition at 30 µM of 72%.
Work on `c1coc(CN2C3Cc4cc5c(cc4C2Cc2cc4c(cc23)OCO4)OCO5)c1` [Example 3, 15-furfuryl-5,6,12,13-tetrahydrocycloocta[1,2-f:5,6-f']bis[1,3]benzodioxol-5,12-imine hydrochloride] yielded an inhibition at 30 µM of -99%.
For `Fc1ccc(CCCN2C3Cc4cc5c(cc4C2Cc2cc4c(cc23)OCO4)OCO5)cc1` [Example 4, 15-[3-(4-fluorophenyl)propyl]-5,6,12,13-tetrahydrocycloocta[1,2-f:5,6-f']bis[1,3]benzodioxol-5,12-imine hydrochloride], the inhibition at 30 µM was 18%.
`CC(=O)N1C2Cc3cc4c(cc3C1Cc1cc3c(cc12)OCCO3)OCCO4` [Example 5, 17-acetyl-6,7,14,15-tetrahydrocycloocta[1,2-g:5,6-g']bis[1,4]benzodioxan-6,14-imine] showed an inhibition at 30 µM of 64%.
With `c1c2c(cc3c1OCO3)C1Cc3cc4c(cc3C(C2)N1)OCO4` [Example 13, 5,6,12,13-tetrahydrocycloocta-[1,2-f:5,6-f']bis[1,3]benzodioxol-5,12-imine] the inhibition at 30 µM was 78%.
Work on `c1c2c(cc3c1OCCO3)C1Cc3cc4c(cc3C(C2)N1)OCCO4` [Example 14] yielded an inhibition at 30 µM of 63%.
Compound `CCC(=O)N1C2Cc3cc4c(cc3C1Cc1cc3c(cc12)OCO3)OCO4` [Example 17, 5,6,12,13-tetrahydro-15-propionylcycloocta-[1,2-f:5,6-f']bis[1,3]benzodioxol-5,12-imine] has an inhibition at 30 µM of 94%.
`CCCC(=O)N1C2Cc3cc4c(cc3C1Cc1cc3c(cc12)OCO3)OCO4` [Example 18] was tested, and the inhibition at 30 µM was 86%.
`COCC(=O)N1C2Cc3cc4c(cc3C1Cc1cc3c(cc12)OCO3)OCO4` [Example 20] showed an inhibition at 30 µM of 92%.
Compound `CCOC(=O)C(=O)N1C2Cc3cc4c(cc3C1Cc1cc3c(cc12)OCO3)OCO4` [Example 21, 15-ethoxalyl-5,6,12,13-tetrahydrocycloocta[1,2-f:5,6-f']bis[1,3]benzodioxol-5,12-imine] has an inhibition at 30 µM of 69%.
`CCOC(=O)CC(=O)N1C2Cc3cc4c(cc3C1Cc1cc3c(cc12)OCO3)OCO4` [Example 22, 15-(ethoxycarbonylacetyl)-5,6,12,13-tetrahydrocycloocta[1,2-f:5,6-g']bis[1,3]benzodioxol-5,12-imine] was tested, and the inhibition at 30 µM was 77%.
In the case of `O=C(c1ccccc1)N1C2Cc3cc4c(cc3C1Cc1cc3c(cc12)OCO3)OCO4` [Example 23], the inhibition at 30 µM is reported as 39%.
In the case of `CCOC(=O)N1C2Cc3cc4c(cc3C1Cc1cc3c(cc12)OCO3)OCO4` [Example 24], the inhibition at 30 µM is reported as 68%.
Compound `CCCCCOC(=O)N1C2Cc3cc4c(cc3C1Cc1cc3c(cc12)OCO3)OCO4` [Example 25] has an inhibition at 30 µM of 46%.
Compound `O=C(Oc1ccccc1)N1C2Cc3cc4c(cc3C1Cc1cc3c(cc12)OCO3)OCO4` [Example 26] has an inhibition at 30 µM of 27%.
`CN1C2Cc3cc4c(cc3C1Cc1cc3c(cc12)OCO3)OCO4` [Example 27] showed an inhibition at 30 µM of 86%.
`CC(C)CN1C2Cc3cc4c(cc3C1Cc1cc3c(cc12)OCO3)OCO4` [Example 31] gave an inhibition at 30 µM of 36%.
`C=CCN1C2Cc3cc4c(cc3C1Cc1cc3c(cc12)OCO3)OCO4` [Example 32] showed an inhibition at 30 µM of 12%.
`C=CCCCN1C2Cc3cc4c(cc3C1Cc1cc3c(cc12)OCO3)OCO4` [Example 33] gave an inhibition at 30 µM of -5%.
`c1c2c(cc3c1OCO3)C1Cc3cc4c(cc3C(C2)N1CCN1CCCCC1)OCO4` [Example 34] showed an inhibition at 30 µM of 56%.
For `OCCN1C2Cc3cc4c(cc3C1Cc1cc3c(cc12)OCO3)OCO4` [Example 35], the inhibition at 30 µM was 65%.
`COC(=O)CCN1C2Cc3cc4c(cc3C1Cc1cc3c(cc12)OCO3)OCO4` [Example 36] was tested, and the inhibition at 30 µM was -24%.
`CCOC(=O)CN1C2Cc3cc4c(cc3C1Cc1cc3c(cc12)OCO3)OCO4` [Example 37] gave an inhibition at 30 µM of 19%.
`CCOC(=O)CCN1C2Cc3cc4c(cc3C1Cc1cc3c(cc12)OCO3)OCO4` [Example 38] gave an inhibition at 30 µM of 6%.
`N#CCCN1C2Cc3cc4c(cc3C1Cc1cc3c(cc12)OCO3)OCO4` [Example 39, 15-(2-cyanoethyl)-5,6,12,13-tetrahydrocycloocta[1,2-f:5,6-f']bis[1,3]benzodioxol-5,12-imine] was tested, and the inhibition at 30 µM was -48%.
With `O=CN1C2Cc3cc4c(cc3C1Cc1cc3c(cc12)OCO3)OCO4` [Example 40, 15-formyl-5,6,12,13-tetrahydrocycloocta[1,2-f:5,6-f']bis[1,3]benzodioxol-5,12-imine] the inhibition at 30 µM was 84%.
For `COCCN1C2Cc3cc4c(cc3C1Cc1cc3c(cc12)OCO3)OCO4` [Example 42, 5,6,12,13-tetrahydro-15-(2-methoxyethyl)cycloocta[1,2-f:5,6-f']bis[1,3]benzodioxol-5,12-imine], the inhibition at 30 µM was 11%.
With `CNC(=O)N1C2Cc3cc4c(cc3C1Cc1cc3c(cc12)OCO3)OCO4` [Example 44, 5,6,12,13-tetrahydro-15-(N-methylcarbamoyl)cycloocta[1,2-f:5,6-f']bis[1,3]benzodioxol-5,12-imine] the inhibition at 30 µM was 90%.
In the case of `O=C(O)CC(=O)N1C2Cc3cc4c(cc3C1Cc1cc3c(cc12)OCO3)OCO4` [Example 45, 15-(carboxyacetyl)-5,6,12,13-tetrahydrocycloocta[1,2-f:5,6-f']bis[1,3]benzodioxol-5,12-imine], the inhibition at 30 µM is reported as 15%.
For `O=C(O)C(=O)N1C2Cc3cc4c(cc3C1Cc1cc3c(cc12)OCO3)OCO4` [Example 46, 5,6,12,13-tetrahydro-15-oxalocycloocta[1,2-f:5,6-f']bis[1,3]benzodioxol-5,12-imine], the inhibition at 30 µM was 6%.
For `O=C(CCO)N1C2Cc3cc4c(cc3C1Cc1cc3c(cc12)OCO3)OCO4` [Example 47, 5,6,12,13-tetrahydro-15-(3-hydroxypropionyl)cycloocta[1,2-f:5,6-f']bis[1,3]benzodioxol-5,12-imine], the inhibition at 30 µM was 83%.
In the case of `O=C(CO)N1C2Cc3cc4c(cc3C1Cc1cc3c(cc12)OCO3)OCO4` [Example 48, 15-glycoloyl-5,6,12,13-tetrahydrocycloocta[1,2-f:5,6-f']bis-[1,3]benzodioxol-5,12-imine], the inhibition at 30 µM is reported as 85%.
In the case of `NCCN1C2Cc3cc4c(cc3C1Cc1cc3c(cc12)OCO3)OCO4` [Example 50, 15-(2-aminoethyl)-5,6,12,13-tetrahydrocycloocta[1,2-f:5,6-f']bis[1,3]benzodioxol-5,12-imine], the inhibition at 30 µM is reported as 64%.
With `NCCCCN1C2Cc3cc4c(cc3C1Cc1cc3c(cc12)OCO3)OCO4` [Example 51, 15-(4-aminobutyl)-5,6,12,13-tetrahydrocycloocta[1,2-f:5,6-f']bis[1,3]benzodioxol-5,12-imine] the inhibition at 30 µM was -44%.
With `NCC(=O)N1C2Cc3cc4c(cc3C1Cc1cc3c(cc12)OCO3)OCO4` [Example 52, 15-glycyl-5,6,12,13-tetrahydrocycloocta[1,2-f:5,6-f']bis[1,3]benzodioxol-5,12-imine] the inhibition at 30 µM was 20%.
`NCCC(=O)N1C2Cc3cc4c(cc3C1Cc1cc3c(cc12)OCO3)OCO4` [Example 53, 15-(3-aminopropionyl)-5,6,12,13-tetrahydrocycloocta[1,2-f:5,6-f']bis[1,3]benzodioxol-5,12-imine] gave an inhibition at 30 µM of -1%.
